Reference: patent US11065249B2, “Diacylglycerol acyl transferase 2 inhibitor” (Pfizer Inc., priority 2019, dated 2021)
≈ marks a conversion by molar mass, not a printed value. Structures can show the parent of a compound that is named as a salt.

Experiments:
[1] = target: human DGAT2 (hDGAT2) (Homo sapiens (Human), UniProt Q96PD7); experiment: In vitro DGAT2 assay, determination of IC50 values for DGAT2 inhibitors; assay type: biochemical; details: inhibition of DGAT2, hDGAT2 membrane fractions; geometric mean
human DGAT2 (hDGAT2), sequence (Q96PD7 whole entry): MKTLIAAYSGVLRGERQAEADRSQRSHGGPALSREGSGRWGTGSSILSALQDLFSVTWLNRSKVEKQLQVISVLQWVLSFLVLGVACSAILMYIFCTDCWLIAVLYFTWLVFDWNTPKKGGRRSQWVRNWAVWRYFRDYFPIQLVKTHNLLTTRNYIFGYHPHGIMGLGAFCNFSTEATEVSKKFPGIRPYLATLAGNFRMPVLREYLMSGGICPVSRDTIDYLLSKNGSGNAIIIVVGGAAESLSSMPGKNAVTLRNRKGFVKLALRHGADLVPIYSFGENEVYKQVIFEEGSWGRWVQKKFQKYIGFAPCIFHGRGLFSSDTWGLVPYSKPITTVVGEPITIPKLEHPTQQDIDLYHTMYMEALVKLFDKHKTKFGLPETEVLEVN
Protocol: Recombinant baculovirus for the FLAG-tagged hDGAT2 was generated in SF9 insect cells using Bac-to-Bac baculovirus expression system (Invitrogen) according to the manufacturer's protocol. For the expression of hDGAT2, SF9 cells (20 L) grown in Sf900II media were infected with hDGAT2 baculovirus at a multiplicity of infection of 1 in a Wave Bioreactor System 20/50P wave bag (GE Healthcare). After 40 hours of infection, the cells were then harvested by centrifugation at 5,000×g. The cell pellets were washed by resuspending in phosphate buffered saline (PBS) and collected by centrifugation at 5,000×g. The cell paste was flash frozen in liquid N2 and stored at −80° C. until needed. All operations below were at 4° C. unless otherwise noted. The cells were resuspended in lysis buffer (50 mM Tris-HCl, pH 8.0, 250 mM sucrose) including 1 mM ethylenediaminetetraacetic acid (EDTA) and the complete protease inhibitor cocktail (Roche Diagnostics) at a ratio of 3 mL buffer per 1 g cell paste. The cells were lysed by dounce homogenizer. The cell debris was removed by centrifugation at 1,000×g for 20 min, and the supernatant was centrifuged at 100,000×g for 1 hour. The resulting pellet was rinsed three times by filling ultracentrifuge tubes to the top with ice cold PBS before decanting. The washed pellet was resuspended with gentle stirring for 1 hour in lysis buffer containing 8 mM 3-[(3-cholamidopropyl)dimethylammonio]-1-propanesulfonate (CHAPS) at a ratio of 1 mL buffer per 1 g of original cell paste and centrifuged again at 100,000×g for 1 hour. The resulting supernatant was aliquotted, flash frozen in liquid N2, and stored at −80° C. until use.
To 1 μL of compounds dissolved in 100% DMSO and spotted at the bottom of each well, 5 μL of 0.04% bovine serum albumin (BSA) (fatty acid free, Sigma Aldrich) was added and the mixture was incubated at room temperature for 15 minutes. hDGAT2 membrane fractions were diluted in 100 mM Hepes-NaOH, pH 7.4, 20 mM MgCl2 containing 200 nM methyl arachidonyl fluorophosphonate (Cayman Chemical, dried from ethyl acetate stock solution under argon gas and dissolved in DMSO as 5 mM stock). 10 μL of this enzyme working solution was added to the plates and incubation continued for 2 hours at room temperature. DGAT2 reactions were initiated by the addition of 4 μL of substrates containing 30 μM [1-^14C]decanoyl-CoA (custom-synthesized by Perkin Elmer, 50 mCi/mmol) and 125 μM 1,2-didecanoyl-sn-glycerol (Avanti Polar Lipids) dissolved in 12.5% acetone. The reaction mixtures were incubated at room temperature for 40 min and the reactions were stopped by addition of 5 μL of 1% H3PO4. After the addition of 45 μL MicroScint-E (Perkin-Elmer), plates were sealed with Top Seal-A covers (Perkin-Elmer) and phase partitioning of substrates and products was achieved using a HT-91100 microplate orbital shaker (Big Bear Automation, Santa Clara, Calif.). Plates were centrifuged at 2,000×g for 1 minute in an Allegra 6R Centrifuge (Beckman Coulter) and then were sealed again with fresh covers before reading in a 1450 Microbeta Wallac Trilux Scintillation Counter (Perkin Elmer). DGAT2 activity was measured by quantifying the generated product [^14C]tridecanoylglycerol in the upper organic phase.
Inhibitors were tested at eleven different concentrations to generate IC50 values for each compound.

[2] = Intrinsic clearance in human liver microsomes; assay type: in vitro ADME; details: 1 μM test compound, mean +/− STD Dev; for microsomal CLint at 1 μM: human, pooled human liver microsomes, pH 7.4, human liver microsome assay; for CLint (+/−STD Dev): human liver microsome assay
Protocol: The incubations were conducted at 37° C. […] (Sorvall R C 3C Plus, Thermo Scientific, Waltham, Mass.).

[3] = Determination of pKa (capillary electrophoresis, Analiza); assay type: physicochemical; details: most basic pKa, mean
[4] = High throughput determination of intrinsic clearance in human hepatocytes; assay type: in vitro ADME; details: human, pooled cryopreserved human hepatocytes (suspension), high throughput human hepatocyte assay, 1 μM test compound; mean +/− Std Dev
Protocol: (§1) The incubation was carried out at 37° C. […] The samples were centrifuged (Eppendorf, Hauppauge, N.Y.) at 3000 rpm for 5 min at 4° C.

[5] = target: DGAT2 in human hepatocytes (Homo sapiens (Human), UniProt Q96PD7); experiment: Determination of IC50 values for DGAT2 inhibitors in human hepatocytes; assay type: cell-based; details: inhibition of DGAT2 in human hepatocytes; geometric mean
DGAT2 in human hepatocytes, sequence (Q96PD7 whole entry): as above
Protocol: For evaluation of the effects of DGAT2 inhibitors in a cell-based setting, cryopreserved human hepatocytes (Lot DOO, Celsis, Baltimore, Md.) were thawed and plated onto type I collagen-coated plates according to the manufacturer's instructions. After 18 hours overnight recovery period, the cells were overlayed with media containing 250 μg/mL Geltrex Basement Membrane Matrix (Thermo Fisher). The following day, media was aspirated and replaced with serum-free Williams Media E (Thermo Fisher) containing 400 μM sodium dodecanoate (Sigma-Aldrich, St. Louis, Mo.) and 2 mM GlutaMAX (Thermo Fisher). […] DGAT2 inhibitors were then added to the desired final concentration. After a 15 minute preincubation, 0.2 μCi [^14C(U)]-glycerol (Perkin Elmer) was added to each well followed by a 3 hour incubation. At this point the media was removed, and the cells lysed via orbital shaking in isopropyl alcohol:tetrahydrofuran (9:1) for 15 minutes prior to centrifugation at 3000 rpm for 10 minutes. Radiolabeled lipids were resolved using a solvent system by thin layer chromatography with the solvent consisting of hexanes:diethyl ether:glacial acetic acid (75:23:2, v/v/v). After separation, radiolabeled lipids were visualized using the Typhoon 9500 phosphorimaging system (GE). The half maximal inhibitory concentrations (IC50 values) were determined by nonlinear regression analysis of the % inhibition dose response curve using GraphPad Prism (GraphPad Software, Inc., La Jolla, Calif.).
Table 5 below provides the IC50 values of selected Examples for inhibition of DGAT2 in human hepatocytes in accordance with the above-described assay. Results are reported as geometric mean IC50 values, with the number of replicates (n) shown.

[6] = tested on: human hepatocytes; experiment: High throughput determination of intrinsic clearance in human hepatocytes; assay type: in vitro ADME; details: high throughput human hepatocyte assay, 1 μM test compound; mean +/− Std Dev
Protocol: as §1

[7] = Thermodynamic solubility in various biorelevant media (PBS, SGN, FaSSIF, FeSSIF); assay type: physicochemical
Protocol: The solubility of active pharmaceutical ingredients is an important characteristic in determining biological performance and ease of formulation during drug development, with high solubility being preferred (Klein, S. 2010, The AAPS Journal, 12, 397-406; Di, L., et al 2012, Drug Disc. Today, 17.486-495). A test sample of crystalline solid (˜7 mg) was combined in a vial with 1 mL of the relevant buffer solution and the mixture vortexed to combine. If the solid dissolved completely, additional solid was added with vortexing until a saturated solution was obtained. The saturated solution/solid mixture was capped and subjected to temperature cycling as follows: 1 min at 25° C.; 8 h at 40° C.; 5 h at 15° C. and 12 h at 25° C. The mixture was filtered in a centrifugal filtration device (0.22 μm PVDF filter, MilliporeSigma, Milwaukee, Wis.) at 13,000 rpm and the concentration of the test compound in the filtrate was determined by HPLC/UPLC with reference to a three point standard curve. Phosphate buffered saline (PBS, pH 6.8, 50 mM phosphate buffer, 250 mM NaCl). Simulated gastric fluid (SGN pH 1.2, USP recipe). Fasted state simulated intestinal fluid (FaSSIF, 3 mM sodium taurocholate, 0.75 mM phospholipid from soybean lecithin, 50 mM phosphate buffer, ionic strength adjusted to 250 mM with NaCl, pH 6.8) and fed state simulated intestinal fluid (FeSSIF, 15 mM sodium taurocholate, 3.75 mM phospholipid from soybean lecithin, 144 mM acetic acid, 50 mM phosphate buffer, ionic strength adjusted to 250 mM with NaCl, pH 6.8).

SMILES | IC50 [1] | microsomal CLint at 1 μM [2] | hepatocyte CLint at 1 μM [4] | CLint (+/−STD Dev) [2] | CLint (+/−Std Dev) [6] | other results
CCOc1cc(F)cnc1Oc1cncc(-c2ncc(C(=O)N[C@@H]3CNCC[C@@H]3F)cn2)c1 [Example 1, 2-{5-[(3-Ethoxy-5-fluoropyridin-2-yl)oxy]pyridin-3-yl}-N-[(3R,4S)-4-fluoropiperidin-3-yl]pyrimidine-5-carboxamide, bis(trifluoroacetate) salt] | 5.8 nM | – | – | <7 µL/min/mg | <2.7 +/− 0.72 μL/min/10^6 cells | Basic pKa [3]: 7.7
CCOc1cccnc1Oc1cncc(-c2ncc(C(=O)N[C@H]3CCOC3)cn2)c1 [WO2018033832 Ex. 1, Form 1] | – | – | – | – | – | Solubility ([7]; FaSSIF pH 6.8): 69 µg/mL (≈ 169 µM); Solubility ([7]; PBS, pH 6.8): 43 µg/mL (≈ 106 µM); Solubility ([7]; SGN pH 1.2): 78 µg/mL (≈ 191 µM)
CCOc1cccnc1Oc1cncc(-c2ncc(C(=O)N[C@H]3CCOC3)cn2)c1 [WO2018033832 Ex. 1, Form 2] | – | – | – | – | – | Solubility ([7]; FaSSIF pH 6.8): 93 µg/mL (≈ 228 µM); Solubility ([7]; PBS, pH 6.8): 60 µg/mL (≈ 147 µM); Solubility ([7]; SGN pH 1.2): 1082 µg/mL (≈ 2660 µM)
CCOc1cccnc1Oc1cncc(-c2ncc(C(=O)NC3(C)CCS(=O)(=O)C3)cn2)c1 (stereo not drawn) [WO2018033832 Ex. 3.1] | – | – | – | 30 µL/min/mg | 9.3 +/− 1.1 μL/min/10^6 cells | –
CCOc1cccnc1Oc1cncc(-c2ncc(C(=O)NC3CCS(=O)(=O)C3)cn2)c1 (stereo not drawn) [WO2018033832 Ex. 3.3] | – | – | – | <8 µL/min/mg | 5.1 +/− 0.69 μL/min/10^6 cells | –
CCOc1cc(F)cnc1Oc1cncc(-c2ncc(C(=O)N[C@H]3CCOC3)cn2)c1 [WO2018033832 Ex. 8] | – | – | – | <9.6 µL/min/mg | 9.3 +/− 0.52 μL/min/10^6 cells | –

The next lines start with results.

IC50 [1] | microsomal CLint at 1 μM [2] | hepatocyte CLint at 1 μM [4] | CLint (+/−STD Dev) [2] | CLint (+/−Std Dev) [6] | SMILES | other results
19 nM | > 290 µL/min/mg | 54 µL/min/1e6 cells | – | – | CCOc1cccnc1Oc1cncc(-c2ncc(C(=O)N[C@H]3CC[C@H](C(F)(F)F)NC3)cn2)c1 (racemic) [Example 9, rac-2-{5-[(3-ethoxypyridin-2-yl)oxy]pyridin-3-yl}-N-[(3R,6S)-6-(trifluoromethyl)piperidin-3-yl]pyrimidine-5-carboxamide or rac-2-{5-[(3-ethoxypyridin-2-yl)oxy]pyridin-3-yl}-N-[(3R,6R)-6-(trifluoromethyl)piperidin-3-yl]pyrimidine-5-carboxamide] | pKa [3]: 4
200 nM | 11 µL/min/mg | 6.5 µL/min/1e6 cells | – | – | CCOc1cccnc1Oc1cncc(-c2ncc(C(=O)N[C@H]3CNC[C@@H](F)C3)cn2)c1 (racemic) [Example 25, rac-2-{5-[(3-ethoxypyridin-2-yl)oxy]pyridin-3-yl}-N-[(3R,5S)-5-fluoropiperidin-3-yl]pyrimidine-5-carboxamide, trifluoroacetate salt] | IC50 [5]: > 130 nM; pKa [3]: 6.8
39 nM | 270 µL/min/mg | 27 µL/min/1e6 cells | – | – | CCOc1cccnc1Oc1cncc(-c2ncc(C(=O)NC3CCC(C(F)(F)F)NC3)cn2)c1 (single isomer, unassigned; ent-1) [Example 10, 2-{5-[(3-ethoxypyridin-2-yl)oxy]pyridin-3-yl}-N-[6-(trifluoromethyl)piperidin-3-yl]pyrimidine-5-carboxamide, trifluoroacetate salt, ENT-1] | Basic pKa [3]: 4.7
– | – | – | <7 µL/min/mg | <1.9 +/− 0.35 μL/min/10^6 cells | CCOc1cccnc1Oc1cncc(-c2ncc(C(=O)N[C@@H]3CNCC[C@@H]3F)cn2)c1 [Example 3, 2-{5-[(3-Ethoxypyridin-2-yl)oxy]pyridin-3-yl}-N-[(3R,4S)-4-fluoropiperidin-3-yl]pyrimidine-5-carboxamide, bis(trifluoroacetate) salt] | Basic pKa [3]: 8.1
– | < 7 µL/min/mg | < 1.8 µL/min/1e6 cells | – | – | CCOc1cccnc1Oc1cncc(-c2ncc(C(=O)N[C@H]3CNC[C@H](F)C3)cn2)c1 [Example 7, 2-{5-[(3-ethoxypyridin-2-yl)oxy]pyridin-3-yl}-N-[(3R,5R)-5-fluoropiperidin-3-yl]pyrimidine-5-carboxamide, trifluoroacetate salt] | IC50 [5]: 100 nM; pKa [3]: 7.5
